Experimental data taken from PubChem BioAssay (NCI).
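Values below derive from 48-hour exposures of cells grown in 96-well plates, with endpoints linearly interpolated between the two concentrations bracketing the appropriate inhibition level. TGI: total growth inhibition.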

Legend:
Experiment in all cases: NCI tumour cell line growth inhibition, 48 h
A549 NSCLC = system: A549 NSCLC
COLO 205 colon = system: COLO 205 colon
HCC-2998 colon = system: HCC-2998 colon
HCT-15 colon = system: HCT-15 colon
HOP-62 NSCLC = system: HOP-62 NSCLC
HOP-92 NSCLC = system: HOP-92 NSCLC
MALME-3M melanoma = system: MALME-3M melanoma
OVCAR-3 ovarian = system: OVCAR-3 ovarian
OVCAR-5 ovarian = system: OVCAR-5 ovarian
OVCAR-8 ovarian = system: OVCAR-8 ovarian
SK-MEL-2 melanoma = system: SK-MEL-2 melanoma
SK-MEL-5 melanoma = system: SK-MEL-5 melanoma
SK-OV-3 ovarian = system: SK-OV-3 ovarian
SN12C renal = system: SN12C renal
TK-10 renal = system: TK-10 renal
U251 CNS = system: U251 CNS
UACC-257 melanoma = system: UACC-257 melanoma
UO-31 renal = system: UO-31 renal

Row | SMILES | TGI (A549 NSCLC) [µM] | TGI (COLO 205 colon) [µM] | TGI (HCC-2998 colon) [µM] | TGI (HCT-15 colon) [µM] | TGI (HOP-62 NSCLC) [µM] | TGI (HOP-92 NSCLC) [µM] | TGI (MALME-3M melanoma) [µM] | TGI (OVCAR-3 ovarian) [µM] | TGI (OVCAR-5 ovarian) [µM] | TGI (OVCAR-8 ovarian) [µM] | TGI (SK-MEL-2 melanoma) [µM] | TGI (SK-MEL-5 melanoma) [µM] | TGI (SK-OV-3 ovarian) [µM] | TGI (SN12C renal) [µM] | TGI (TK-10 renal) [µM] | TGI (U251 CNS) [µM] | TGI (UACC-257 melanoma) [µM] | TGI (UO-31 renal) [µM]
1 | COc1ccc(NC(=O)c2oc3cc(O)ccc3c(=O)c2C)c([N+](=O)[O-])c1 | > 100 | > 100 | > 100 | > 100 | > 100 | > 100 | > 100 | > 100 | > 100 | > 100 | > 100 | > 100 | > 100 | > 100 | > 100 | > 100 | > 100 | > 100
2 | CCCCCCCCCCCCCCCCCCOCC(C[N+]1(C)CCC(O)CC1)OCC (centres undefined) | 32.9 | 14.2 | 31.7 | – | 16.7 | 4.49 | 28.8 | 15.4 | – | 41.4 | 20.9 | – | 8.22 | 15.4 | 20.5 | – | 28 | 27.5
3 | CNC(=O)CCCNC(=O)CCCCC(=O)N(C)C | > 100 | > 100 | – | – | > 100 | – | > 100 | > 100 | > 100 | > 100 | > 100 | > 100 | > 100 | > 100 | > 100 | > 100 | – | > 100
4 | Cc1ccc(C2[C@H]3C(=O)N(c4ccc(Cc5ccc(N6C(=O)[C@@H]7ON(c8ccccc8)C(c8ccc(C)cc8)[C@@H]7C6=O)cc5)cc4)C(=O)[C@H]3ON2c2ccccc2)cc1 (some centres undefined) | > 100 | > 100 | > 100 | > 100 | > 100 | > 100 | > 100 | > 100 | > 100 | – | > 100 | > 100 | > 100 | > 100 | – | > 100 | > 100 | > 100
5 | O=C1NC2C3CC(OCc4ccccc4)(OCc4ccccc4)C2OC3O1 (centres undefined) | > 50 | > 50 | > 50 | > 50 | > 50 | > 50 | > 50 | > 50 | > 50 | – | > 50 | > 50 | > 50 | > 50 | – | – | > 50 | > 50
6 | O=C1C[C@@H]2[C@@H](c3ccccc3)[C@@H]3C(=O)c4ccccc4NC(=O)[C@H]3[C@]2(O)c2ccccc2N1 | > 100 | > 100 | – | > 100 | > 100 | – | > 100 | > 100 | > 100 | > 100 | > 100 | > 100 | – | > 100 | > 100 | > 100 | – | > 100
7 | COC(=O)CSc1nc2[nH]c(SC)c(C(N)=O)c2c(=O)n1-c1ccccc1 | > 10 | > 10 | > 10 | > 10 | > 10 | > 10 | > 10 | – | – | > 10 | – | > 10 | > 10 | > 10 | > 10 | – | > 10 | –
8 | O=C(Nc1ccc([N+](=O)[O-])cc1[N+](=O)[O-])C(=O)C(C(=O)c1ccc(Cl)c(Cl)c1)C1OC(=O)c2ccccc21 (centres undefined) | 73.7 | 48.4 | – | 76.7 | 36.9 | 9.46 | > 100 | 93.1 | 65.9 | 45.5 | – | – | 82.5 | 85 | 93.7 | > 100 | 68.4 | 80.9
9 | CC(C)=CCC/C(C)=C/Cc1c(O)c(C)cc2c1[nH]c1cc(O)ccc12 | > 25 | > 25 | > 25 | > 25 | > 25 | > 25 | > 25 | > 25 | > 25 | > 25 | > 25 | > 25 | > 25 | > 25 | > 25 | > 25 | – | > 25
10 | CC1(C2COC(=O)C2)SCCCS1 (centres undefined) | > 100 | > 100 | > 100 | > 100 | > 100 | > 100 | > 100 | > 100 | – | > 100 | > 100 | > 100 | > 100 | > 100 | > 100 | – | > 100 | 28.1
11 | O=NN1CCN=C1c1ccc([N+](=O)[O-])cc1 | > 100 | > 100 | > 100 | > 100 | > 100 | > 100 | > 100 | > 100 | > 100 | > 100 | – | > 100 | > 100 | > 100 | > 100 | > 100 | > 100 | > 100
12 | C=CC(=O)Nc1ccccc1CC(c1c[nH]c2ccccc12)c1c[nH]c2ccccc12 | 56.7 | 30.9 | 33.4 | 38.7 | 35.1 | – | 33.3 | 32.6 | – | 33.6 | 32.7 | 33.4 | 45.7 | 30.6 | 59.1 | – | 40.5 | 31.7
